From PubChem BioAssay AID248 (DTP/NCI, 2004)
“And” between values parts separate entries of the source, which are not always exact repeats. Identical values can stand only once. Toxic doses and inconclusive results are not listed. Rule as the data show it: active = T/C of 150% or more; inactive = T/C below 125%.

System: L1210 leukemia ip in BDF1 mice, survival T/C
Test: NCI In Vivo Anticancer Drug Screen. Data for tumor model L1210 Leukemia (intraperitoneal) in B6D2F1 (BDF1) mice
Conditions: endpoint: mean survival time, higher = longer survival
Outline: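 Transplantable tumor model; survival measured in treated vs vehicle control mice. Value = treated/control.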

[1] = dose: 100.0 mg/kg/injection, schedule: Q01DX009 (ip), vehicle: Klucel (hydroxypropylcellulose) (HPC)
[2] = dose: 200.0 mg/kg/injection, schedule: Q01DX009 (ip), vehicle: Klucel (hydroxypropylcellulose) (HPC)
[3] = dose: 400.0 mg/kg/injection, schedule: Q01DX009 (ip), vehicle: Klucel (hydroxypropylcellulose) (HPC)
[4] = dose: 50.0 mg/kg/injection, schedule: Q01DX009 (ip), vehicle: Klucel (hydroxypropylcellulose) (HPC)
[5] = dose: 100.0 mg/kg/injection, schedule: Q04DX003 (ip), vehicle: Klucel (hydroxypropylcellulose) (HPC)
[6] = dose: 100.0 mg/kg/injection, schedule: Q04DX003 (ip), vehicle: saline
[7] = dose: 75.0 mg/kg/injection, schedule: Q01DX001 (ip), vehicle: Klucel (hydroxypropylcellulose) (HPC)
[8] = dose: 150.0 mg/kg/injection, schedule: Q01DX001 (ip), vehicle: Klucel (hydroxypropylcellulose) (HPC)
[9] = dose: 100.0 mg/kg/injection, schedule: Q04DX003 (ip), vehicle: saline with Tween-80
[10] = dose: 200.0 mg/kg/injection, schedule: Q04DX003 (ip), vehicle: Klucel (hydroxypropylcellulose) (HPC)
[11] = dose: 400.0 mg/kg/injection, schedule: Q04DX003 (ip), vehicle: Klucel (hydroxypropylcellulose) (HPC)

Measured: T/C

CCC(=O)CC(=O)C(=O)OC
inactive: dose: 75.0 mg/kg/injection, schedule: Q01DX001 (ip), vehicle: saline 102 % of control | dose: 75.0 mg/kg/injection, schedule: Q04DX003 (ip), vehicle: saline 105 % of control | dose: 150.0 mg/kg/injection, schedule: Q01DX001 (ip), vehicle: saline 100 % of control | dose: 150.0 mg/kg/injection, schedule: Q04DX003 (ip), vehicle: saline 103 % of control | dose: 300.0 mg/kg/injection, schedule: Q01DX001 (ip), vehicle: saline 104 % of control | dose: 300.0 mg/kg/injection, schedule: Q04DX003 (ip), vehicle: saline 90 % of control

COC1CN(C)C(=Nc2cccc3ccccc23)S1 (centres undefined)
inactive: dose: 100.0 mg/kg/injection, schedule: Q01DX009 (ip), vehicle: other 100 % of control | dose: 100.0 mg/kg/injection, schedule: Q04DX003 (ip), vehicle: other 103 % of control | dose: 200.0 mg/kg/injection, schedule: Q01DX009 (ip), vehicle: other 94 % of control | dose: 200.0 mg/kg/injection, schedule: Q04DX003 (ip), vehicle: other 95 % of control | dose: 400.0 mg/kg/injection, schedule: Q01DX009 (ip), vehicle: other 97 % of control | dose: 400.0 mg/kg/injection, schedule: Q04DX003 (ip), vehicle: other 92 % of control

CC(C)(C)NC(=O)C(Cl)Cl
inactive: dose: 100.0 mg/kg/injection, schedule: Q01DX001 (ip), vehicle: saline with Tween-80 88 % of control | dose: 200.0 mg/kg/injection, schedule: Q01DX001 (ip), vehicle: saline with Tween-80 98 % of control

O=C(Nc1ccc(C2=NCCN2)c(Cl)c1)c1ccc(C(=O)Nc2ccc(C3=NCCN3)c(Cl)c2)cc1
inactive: dose: 1.87 mg/kg/injection, schedule: Q01DX Z (ip), vehicle: carboxymethylcellulose (CMC) 124 % of control | dose: 3.75 mg/kg/injection, schedule: Q01DX Z (ip), vehicle: carboxymethylcellulose (CMC) 124 % of control | dose: 7.5 mg/kg/injection, schedule: Q01DX Z (ip), vehicle: carboxymethylcellulose (CMC) 117 % of control | dose: 30.0 mg/kg/injection, schedule: Q01DX Z (ip), vehicle: carboxymethylcellulose (CMC) 120 % of control | dose: 120.0 mg/kg/injection, schedule: Q01DX Z (ip), vehicle: carboxymethylcellulose (CMC) 86 % of control

C=CCCCCCCCCC(=O)N/N=C/c1cccs1
inactive: [1] 95 % of control | [2] 100 % of control | [3] 105 % of control

O=C/C(Br)=C\c1ccccc1
inactive: dose: 25.0 mg/kg/injection, schedule: Q01DX009 (ip), vehicle: Klucel (hydroxypropylcellulose) (HPC) 95 % of control | dose: 25.0 mg/kg/injection, schedule: Q04DX003 (ip), vehicle: Klucel (hydroxypropylcellulose) (HPC) 100 % of control | [4] 90 % of control | dose: 50.0 mg/kg/injection, schedule: Q04DX003 (ip), vehicle: Klucel (hydroxypropylcellulose) (HPC) 100 % of control | [1] 105 % of control | [5] 93 % of control and 105 % of control

C=CC[n+]1cccc(S(=O)(=O)[O-])c1
inactive: [6] 101 % of control | dose: 200.0 mg/kg/injection, schedule: Q04DX003 (ip), vehicle: saline 98 % of control | dose: 400.0 mg/kg/injection, schedule: Q04DX003 (ip), vehicle: saline 103 % of control

CCN(CC)CC(=O)N1Cc2ccccc2CCc2ccccc2C1
inactive: [6] 92 % of control

N#CC/C(C#N)=C/OC(=O)c1ccc(Cl)cc1
inactive: [1] 118 % of control | [2] 124 % of control | [3] 115 % of control

COc1ccc(N=NN(C)C(=O)c2ccccc2)cc1
inactive: [4] 108 % of control | [7] 112 % of control | [1] 120 % of control | [8] 111 % of control | dose: 300.0 mg/kg/injection, schedule: Q01DX001 (ip), vehicle: Klucel (hydroxypropylcellulose) (HPC) 107 % of control

NC(=O)OCCOC(N)=O
inactive: [9] 97 % of control | dose: 200.0 mg/kg/injection, schedule: Q04DX003 (ip), vehicle: saline with Tween-80 95 % of control | dose: 400.0 mg/kg/injection, schedule: Q04DX003 (ip), vehicle: saline with Tween-80 95 % of control

CCOc1ccc(-n2c(=O)c(N=Nc3ccccc3C)c(O)n(-c3ccc(C)cc3)c2=S)cc1
inactive: dose: 37.5 mg/kg/injection, schedule: Q01DX001 (ip), vehicle: Klucel (hydroxypropylcellulose) (HPC) 92 % of control | [7] 101 % of control | [8] 97 % of control

CNC(=O)Nc1nnnc2ccccc12
inactive: dose: 25.0 mg/kg/injection, schedule: Q04DX003 (ip), vehicle: saline with Tween-80 92 % of control | dose: 50.0 mg/kg/injection, schedule: Q04DX003 (ip), vehicle: saline with Tween-80 94 % of control | [9] 89 % of control

CC1(C)N=C(N)N=C(N)N1c1cccc(OCCCOc2ccccc2)c1
inactive: dose: 200.0 mg/kg/injection, schedule: Q01DX001 (ip), vehicle: Klucel (hydroxypropylcellulose) (HPC) 102 % of control

COc1c(NC(=O)Nc2ccc(SC)cc2)cccc1[N+](=O)[O-]
inactive: [1] 89 % of control | [2] 98 % of control | [3] 93 % of control

Cc1ccc(NC(=O)NCCBr)cc1C
inactive: [5] 96 % of control | [10] 93 % of control | [11] 95 % of control

O=C(OCCCCCCCOC(=O)c1ccc([N+](=O)[O-])cc1)c1ccc([N+](=O)[O-])cc1
inactive: dose: 100.0 mg/kg/injection, schedule: Q01DX001 (ip), vehicle: other 101 % of control | dose: 200.0 mg/kg/injection, schedule: Q01DX001 (ip), vehicle: other 96 % of control | dose: 400.0 mg/kg/injection, schedule: Q01DX001 (ip), vehicle: other 95 % of control

Cc1ccc(C(=O)Oc2ccc(N=C=S)cc2)cc1
inactive: dose: 75.0 mg/kg/injection, schedule: Q01DX001 (ip), vehicle: carboxymethylcellulose (CMC) 88 % of control | dose: 150.0 mg/kg/injection, schedule: Q01DX001 (ip), vehicle: carboxymethylcellulose (CMC) 90 % of control | dose: 300.0 mg/kg/injection, schedule: Q01DX001 (ip), vehicle: carboxymethylcellulose (CMC) 87 % of control

CC1=C(C)C(=O)OC1=O
inactive: [5] 97 % of control | [10] 98 % of control

OCC1OC(n2cnc3nccnc32)C(O)C1O (centres undefined)
inactive: dose: 100.0 mg/kg/injection, schedule: Q01DX005 (ip), vehicle: saline 98 % of control | dose: 200.0 mg/kg/injection, schedule: Q01DX005 (ip), vehicle: saline 110 % of control

Cc1cc2nnc(C)n2c2ccccc12
inactive: dose: 50.0 mg/kg/injection, schedule: Q01DX001 (ip), vehicle: saline 103 % of control | dose: 100.0 mg/kg/injection, schedule: Q01DX001 (ip), vehicle: saline 103 % of control

CN(C)C(=O)NS(=O)(=O)c1ccc(Cl)cc1
inactive: [5] 91 % of control | [10] 96 % of control | [11] 95 % of control

ClCC[n+]1ccc(-c2cc[n+](CCCl)cc2)cc1
inactive: dose: 156.0 micrograms/kg/injection, schedule: Q01DX Z (ip), vehicle: saline 110 % of control | dose: 313.0 micrograms/kg/injection, schedule: Q01DX Z (ip), vehicle: saline 100 % of control | dose: 625.0 micrograms/kg/injection, schedule: Q01DX Z (ip), vehicle: saline 98 % of control | dose: 1250.0 micrograms/kg/injection, schedule: Q01DX Z (ip), vehicle: saline 98 % of control

COc1cccc(OC)c1OC(=O)Nc1ccccc1C(F)(F)F
inactive: dose: 100.0 mg/kg/injection, schedule: Q01DX009 (ip), vehicle: saline 98 % of control | dose: 200.0 mg/kg/injection, schedule: Q01DX009 (ip), vehicle: saline 98 % of control | dose: 400.0 mg/kg/injection, schedule: Q01DX009 (ip), vehicle: saline 100 % of control

CCn1c(=S)[nH]c2ccccc2c1=O
inactive: dose: 100.0 mg/kg/injection, schedule: Q04DX002 (ip), vehicle: saline with Tween-80 98 % of control | dose: 200.0 mg/kg/injection, schedule: Q04DX002 (ip), vehicle: saline with Tween-80 109 % of control | dose: 400.0 mg/kg/injection, schedule: Q04DX002 (ip), vehicle: saline with Tween-80 102 % of control

NC(=S)N/N=C/c1cc2c(cc1[N+](=O)[O-])OCO2
inactive: dose: 50.0 mg/kg/injection, schedule: Q01DX001 (ip), vehicle: carboxymethylcellulose (CMC) 98 % of control | dose: 100.0 mg/kg/injection, schedule: Q01DX001 (ip), vehicle: carboxymethylcellulose (CMC) 101 % of control | dose: 200.0 mg/kg/injection, schedule: Q01DX001 (ip), vehicle: carboxymethylcellulose (CMC) 93 % of control
